Results reported in US20030186370A1, “5ht3 receptors of nematodes, polynucleotide molecules encoding same, and antagonists thereof” (priority 2000, published 2003).
Like-named read-outs stand apart in the source and are kept apart here.

Experiments:
C. elegans [1] = assay: Effects of 5-HT receptor class-selective agonists and antagonists on C. elegans pharyngeal pumping and locomotion on agar; format: in vivo
Procedure: For the experiments described below C. elegans of the Bristol N2 strain (Brenner, S. 1974. The genetics of Caenorhabditis elegans, Genetics, 77: 71-94) were cultured at room temperature on HMS174 E. coli bacteria (Campbell J. L. et al. 1978. Genetic recombination and complementation between bacteriophage T7 and cloned fragments of T77 DNA. Proc. Natl. Acad. Sci. USA. 75: 2276-2280) on NGM agar (Sulston, J. and Hodgkin, J. 1988, “Methods” in The nematode Caenorhabditis elegans. W. B. Wood pp 587-606. Cold Spring Harbor Laboratory Press, New York) unless otherwise described.
Studies were therefore conducted wherein selective 5-HT1, 5-HT2 and 5-HT3 agonists were applied at known concentrations to agar on which C. elegans was held in the absence of food and the effects on movement and pharyngeal pumping monitored over a period of 2-3 hours.
Studies were also conducted to investigate the ability of selective vertebrate 5-HT3 antagonists to inhibit the 5-HT-induced increase in pharyngeal pumping.

C. elegans [2] = assay: Dose-response of serotonin-stimulated pharyngeal pumping of C. elegans; format: in vivo; details: for IC50: in the presence of 0.325 mM serotonin (FIG. 2), read-out: IC50, inhibition of serotonin-stimulated pharyngeal pumping
Procedure: FIG. 1 provides dose-response curves for serotonin action on pharyngeal pumping. […] Any minor differences between the curves of FIGS. 1a and 1b are accounted for by the differences in experimental detail and the fact that in the microscopical assay, the rate of pumping is counted over a period of 1-3 minutes, whilst in the plate-based assays the fluorescence intensity represents the accumulation of ingested material over 60 minutes.
At this concentration of 5-HT, the IC50 for MDL72222 is approximately 30 μM, i.e. 10×lower than the EC50 for 5-HT.

Myzus persicae = assay: Green Peach Aphid artificial diet sachet bioassay, growth and survival; format: in vivo; details: for Mean number of surviving aphids (out of 5) / Mean relative growth rate of survivors: after 5 days
Procedure: The effects of MDL 72222 on Green Peach Aphid (Myzus persicae) was also tested. The bioassay involved testing compounds at 3 different concentrations (1 mM, 100 μM, 10 μM) in an artificial diet. Compounds that were not water-soluble were forced into solution using a non-toxic surfactant. For each compound, each concentration was tested in 10 replicate assays. In each replicate, 5 aphids were allowed to feed on the test solution in a Parafilm® sachet for a period of 5 days. Survivorship and aphid growth rate were compared among the test concentrations and a control containing only the artificial diet with surfactant.

Helicoverpa armigera = assay: Growth of neonate H. armigera on surface-contaminated artificial diet; format: in vivo; details: for Mean weight of larva (mg) at 7 days: 24 larvae; for activity at 100 µM / activity at 1000 µM: Helicoverpa armigera, 168 h, read-out: % of control weight
C. elegans [3] = assay: Chronic exposure protocol: nematode growth and survival on NGM agar containing the compound; format: in vivo; details: for mortality at 5 µM / mortality at 10 µM / mortality at 20 µM / mortality at 40 µM / mortality at 81 µM / mortality at 162 µM / mortality at 325 µM: Caenorhabditis elegans
Procedure: Because the pharyngeal pump is essential for nematode feeding and the maintenance of the nematode “hydrostatic skeleton” [Brownlee, D. J. A. et al. 1997, supra] and a previously established target organ for nematicides, an investigation was conducted to assess whether the 5-HT3-selective antagonists would function as nematicidal agents in a chronic exposure protocol.
C. elegans nematodes were cultured on the HMS/174 strain of E. coli [Campbell, J. L. et al. 1978. Genetic recombination and complementation between bacteriophage T7 and cloned fragments of T7 DNA. Proc. Natl. Acad. Sci. USA. 75: 2276-2280] on NGM agar [Sulston, J. and Hodgkin, J. 1988, supra] in the wells of six well tissue culture cluster, 2 ml agar per well. MDL72222 was incorporated into the agar at the specified concentrations using ≦65 μl of acetone as a carrier. A control well contained 65 μl of acetone only. Between five and 11 L1 stage C. elegans were transferred to each well and the wells were incubated at 22° C. for up to four weeks. All concentrations >10 μM MDL 72222 caused developmental delays. Concentrations of MDL 72222 down to 80 μM caused 40 % mortality within three days. […] The bacterial food therefore remained uneaten for prolonged periods.
Concentrations of MDL72222 down to 20 μM caused 90-100% mortality within 21 days and concentrations as low as 10 μM and 5 μM caused 50-100% mortality at 21 days. At the lowest concentrations of MDL72222, nematode death was delayed until after the bacterial food had been consumed. […] The experiment shown in Table 3 was repeated with essentially identical results.

[4] = system: snail 5-HT3-like ion channel; details: Green et al. 1996; read-out: IC50 on the snail 5-HT3-like ion channel / 5-HT gated conductance; cited from earlier work
[5] = Table 3 experiment, 0.325 mM antagonist plus 0.325 mM serotonin
[6] = Table 3 experiment, 0.325 mM, nothing else added
[7] = 0.1 mM by surface contamination of diet
[8] = 1.0 mM by surface contamination of diet
[9] = 72 h, read-out: % Mortality - 3 days
[10] = 504 h, read-out: % Mortality - 21 days
[11] = Table 2 experiment, 0.325 mM (each), nothing else added

Cc1[nH]c2ccc(O)cc2c1CCN.Cl [2-methyl-5-hydroxytryptamine hydrochloride]
Effect on locomotion (C. elegans [1]; agonist 3 mM): Locomotion normal, | Pumping rate (min-1) mean ± s.d. (C. elegans [1]; agonist 3 mM in agar, absence of food, 2-3 hours): 130 ± 27 min⁻¹

CN1[C@@H]2CC[C@H]1C[C@@H](OC(=O)c1cc(Cl)cc(Cl)c1)C2 [MDL 72222]
IC50 (C. elegans [2]; Caenorhabditis elegans): ~25 µM | IC50 (C. elegans [2]): ~30 µM | Mean number of surviving aphids (out of 5) (Myzus persicae; 0.01 mM in artificial diet): 4.6 | Mean relative growth rate of survivors (Myzus persicae; 0.01 mM in artificial diet): 0.0339 | Mean number of surviving aphids (out of 5) (Myzus persicae; 0.1 mM in artificial diet): 3.4 | Mean relative growth rate of survivors (Myzus persicae; 0.1 mM in artificial diet): 0.0200 | Mean number of surviving aphids (out of 5) (Myzus persicae; 1 mM in artificial diet): 0.9 | Mean relative growth rate of survivors (Myzus persicae; 1 mM in artificial diet): 0.0383 | Pumping rate (min-1) mean ± s.d. (C. elegans [1]; [5]): 2 ± 2 min⁻¹ | Pumping rate (min-1) mean ± s.d. (C. elegans [1]; [6]): 1 ± 1 min⁻¹ | Mean weight of larva (mg) at 7 days (Helicoverpa armigera; [7]): 51 mg | Mean weight of larva (mg) at 7 days (Helicoverpa armigera; [8]): 54 mg | activity at 100 µM (Helicoverpa armigera; 0.1 mM by surface contamination of diet, 7 days): 70% | activity at 1000 µM (Helicoverpa armigera; 1.0 mM by surface contamination of diet, 7 days): 75% | Time to consumption of all bacteria (C. elegans [3]; 5 μM in agar): 7 days | Time to consumption of all bacteria (C. elegans [3]; 10 μM in agar): 8 days | Time to consumption of all bacteria (C. elegans [3]; 20 μM in agar): 9 days | Time to consumption of all bacteria (C. elegans [3]; 40 μM in agar): 10 days | Time to consumption of all bacteria (C. elegans [3]; 81 μM in agar): 16 days | Time to consumption of all bacteria (C. elegans [3]; 162 μM in agar): >28 days | Time to consumption of all bacteria (C. elegans [3]; 325 μM in agar): >28 days | mortality at 5 µM (C. elegans [3]; [9]): 0% | mortality at 10 µM (C. elegans [3]; [9]): 0% | mortality at 20 µM (C. elegans [3]; [9]): 0% | mortality at 40 µM (C. elegans [3]; [9]): 0% | mortality at 81 µM (C. elegans [3]; [9]): 42% | mortality at 162 µM (C. elegans [3]; [9]): 64% | mortality at 325 µM (C. elegans [3]; [9]): 55% | mortality at 5 µM (C. elegans [3]; [10]): 100% | mortality at 10 µM (C. elegans [3]; [10]): > 50% | mortality at 20 µM (C. elegans [3]; [10]): 100% | mortality at 40 µM (C. elegans [3]; [10]): > 90% | mortality at 81 µM (C. elegans [3]; [10]): > 90% | mortality at 162 µM (C. elegans [3]; [10]): > 90% | mortality at 325 µM (C. elegans [3]; [10]): 100% | Concentrations that caused developmental delays (C. elegans [3]; L1 stage seeded, 22° C.): > 10 µM

Cl.Clc1cccc(N2CCNCC2)c1 [m-CPP hydrochloride]
Effect on locomotion (C. elegans [1]; agonist 1 mM (each, if combined)): Locomotion inhibited | Pumping rate (min-1) mean ± s.d. (C. elegans [1]; agonist 1 mM (each, if combined) in agar, absence of food, 2-3 hours): 0 min⁻¹ | Effect on locomotion (C. elegans [1]; agonist 6 mM (each, if combined)): Locomotion inhibited | Pumping rate (min-1) mean ± s.d. (C. elegans [1]; agonist 6 mM (each, if combined) in agar, absence of food, 2-3 hours): 0 min⁻¹

Cc1nccn1CC1CCc2c(c3ccccc3n2C)C1=O (stereo not shown) [ondansetron]
Effect on M. persicae (Myzus persicae; 1 mM, 100 μM, 10 μM in artificial diet, 5 days): no discernible effect | Effect on locomotion (C. elegans [1]; [5]): Nematodes moved normally | Pumping rate (min-1) mean ± s.d. (C. elegans [1]; [5]): 32 ± 29 min⁻¹ | Effect on locomotion (C. elegans [1]; [6]): Nematodes moved normally | Pumping rate (min-1) mean ± s.d. (C. elegans [1]; [6]): 0 ± 0 min⁻¹ | Effect on growth and development of neonate H. armigera (Helicoverpa armigera; artificial diet, surface contamination): no discernible effect | IC50 [4]: 10 µM

NCCc1c[nH]c2ccc(O)cc12 [serotonin, 5-Hydroxytryptamine]
EC50 (C. elegans [2]; Caenorhabditis elegans, read-out: EC50 of 5-HT on pharyngeal pumping): ~325 µM | Effect on locomotion (C. elegans [1]; [11]): Nematodes moved normally | Pumping rate (min-1) mean ± s.d. (C. elegans [1]; [11]): 129 ± 6 min⁻¹ | Effect on locomotion (C. elegans [1]; [6]): Nematodes moved normally | Pumping rate (min-1) mean ± s.d. (C. elegans [1]; [6]): 54 ± 45 min⁻¹ | Mean weight of larva (mg) at 7 days (Helicoverpa armigera; [7]): 85 mg | Mean weight of larva (mg) at 7 days (Helicoverpa armigera; [8]): 85 mg | activity at 100 µM (Helicoverpa armigera): 116% | activity at 1000 µM (Helicoverpa armigera): 116%
